Residues, ends and D or L forms follow the SMILES beside them.
Legend:
[1] = target: T1, Atrial natriuretic peptide receptor (Homo sapiens, UniProt P20594+P16066+P17342); assay: Inhibitory activity against guanylate cyclase coupled receptor binding site in rabbit lung by using [125I]-ANP-(103-126); assay type: protein assay, Oryctolagus cuniculus; details: target entry is the homologue from another species
T1 sequence (P20594 whole entry): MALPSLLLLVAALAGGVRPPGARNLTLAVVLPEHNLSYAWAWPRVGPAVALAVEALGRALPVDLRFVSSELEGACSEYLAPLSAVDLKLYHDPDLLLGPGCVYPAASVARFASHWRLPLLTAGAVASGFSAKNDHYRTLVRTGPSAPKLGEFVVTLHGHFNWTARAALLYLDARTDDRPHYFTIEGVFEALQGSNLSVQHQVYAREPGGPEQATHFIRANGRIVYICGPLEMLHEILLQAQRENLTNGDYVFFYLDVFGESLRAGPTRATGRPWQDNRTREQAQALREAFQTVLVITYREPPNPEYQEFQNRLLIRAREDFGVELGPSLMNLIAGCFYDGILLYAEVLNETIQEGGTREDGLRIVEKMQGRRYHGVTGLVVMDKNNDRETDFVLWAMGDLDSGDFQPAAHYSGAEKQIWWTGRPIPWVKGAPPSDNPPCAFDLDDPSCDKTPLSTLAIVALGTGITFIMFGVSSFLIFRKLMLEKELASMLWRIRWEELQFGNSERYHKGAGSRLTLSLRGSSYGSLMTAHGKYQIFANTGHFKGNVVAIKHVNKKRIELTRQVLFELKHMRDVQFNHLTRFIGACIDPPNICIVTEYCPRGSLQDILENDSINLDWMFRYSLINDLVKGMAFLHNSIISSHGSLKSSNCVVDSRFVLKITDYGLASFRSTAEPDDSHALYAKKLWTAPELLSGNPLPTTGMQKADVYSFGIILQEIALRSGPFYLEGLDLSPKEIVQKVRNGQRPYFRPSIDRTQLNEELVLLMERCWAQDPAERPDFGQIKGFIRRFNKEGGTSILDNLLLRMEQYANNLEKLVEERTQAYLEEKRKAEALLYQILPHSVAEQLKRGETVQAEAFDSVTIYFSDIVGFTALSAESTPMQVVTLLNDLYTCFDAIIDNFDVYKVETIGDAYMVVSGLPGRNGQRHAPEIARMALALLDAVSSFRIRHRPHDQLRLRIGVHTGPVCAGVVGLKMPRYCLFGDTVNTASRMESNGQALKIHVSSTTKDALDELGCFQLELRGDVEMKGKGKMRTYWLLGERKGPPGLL
T1 sequence (P16066 whole entry): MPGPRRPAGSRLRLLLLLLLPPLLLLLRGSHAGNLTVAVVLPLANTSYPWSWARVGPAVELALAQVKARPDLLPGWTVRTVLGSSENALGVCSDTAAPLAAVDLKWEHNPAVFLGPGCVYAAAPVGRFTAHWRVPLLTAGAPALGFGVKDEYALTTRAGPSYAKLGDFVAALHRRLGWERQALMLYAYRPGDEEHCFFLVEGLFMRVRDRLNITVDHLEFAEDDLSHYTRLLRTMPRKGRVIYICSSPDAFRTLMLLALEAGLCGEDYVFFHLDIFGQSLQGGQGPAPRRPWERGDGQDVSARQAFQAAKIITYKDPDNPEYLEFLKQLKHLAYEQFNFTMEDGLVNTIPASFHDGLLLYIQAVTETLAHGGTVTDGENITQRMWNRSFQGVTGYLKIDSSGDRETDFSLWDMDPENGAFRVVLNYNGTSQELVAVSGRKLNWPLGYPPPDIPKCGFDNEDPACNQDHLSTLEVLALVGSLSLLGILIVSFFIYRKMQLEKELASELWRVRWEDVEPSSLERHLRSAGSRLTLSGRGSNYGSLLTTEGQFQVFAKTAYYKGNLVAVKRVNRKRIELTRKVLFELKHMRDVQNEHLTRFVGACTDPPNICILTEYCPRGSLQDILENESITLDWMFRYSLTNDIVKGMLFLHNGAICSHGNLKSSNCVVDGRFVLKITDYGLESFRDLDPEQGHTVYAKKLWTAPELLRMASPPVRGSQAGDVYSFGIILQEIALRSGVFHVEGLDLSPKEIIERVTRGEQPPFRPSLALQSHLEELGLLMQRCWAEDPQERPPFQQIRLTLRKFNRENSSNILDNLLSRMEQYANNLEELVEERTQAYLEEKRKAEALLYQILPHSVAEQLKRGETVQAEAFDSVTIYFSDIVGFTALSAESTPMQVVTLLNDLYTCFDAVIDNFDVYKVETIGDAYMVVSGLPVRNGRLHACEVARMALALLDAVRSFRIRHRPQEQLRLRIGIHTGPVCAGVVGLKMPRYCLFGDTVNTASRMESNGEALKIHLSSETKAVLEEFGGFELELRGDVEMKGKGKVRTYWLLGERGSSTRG
T1 sequence (P17342 whole entry): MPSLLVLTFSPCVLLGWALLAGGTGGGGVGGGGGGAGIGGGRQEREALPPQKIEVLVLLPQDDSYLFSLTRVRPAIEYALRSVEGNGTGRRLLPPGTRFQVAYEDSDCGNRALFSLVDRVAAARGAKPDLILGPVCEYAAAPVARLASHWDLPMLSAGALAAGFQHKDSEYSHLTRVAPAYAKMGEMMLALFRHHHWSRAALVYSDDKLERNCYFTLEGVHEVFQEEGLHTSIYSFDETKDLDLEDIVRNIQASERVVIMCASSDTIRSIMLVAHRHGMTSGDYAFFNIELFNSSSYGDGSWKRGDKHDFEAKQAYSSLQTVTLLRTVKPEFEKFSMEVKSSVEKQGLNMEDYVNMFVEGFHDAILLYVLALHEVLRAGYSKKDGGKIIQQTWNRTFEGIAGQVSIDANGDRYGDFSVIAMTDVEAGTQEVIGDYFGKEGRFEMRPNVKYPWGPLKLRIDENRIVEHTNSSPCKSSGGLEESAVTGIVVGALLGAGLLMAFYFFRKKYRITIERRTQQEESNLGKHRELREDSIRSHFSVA

[2] = Ratio of IC50 of guanylate cyclase coupled receptor binding and non-guanylate cyclase coupled binding
[3] = Inhibitory activity against non-guanylate cyclase receptor binding site in rabbit lung by using [125I]-ANP-(103-126); parameters: species or system Oryctolagus cuniculus

SMILES | IC50 [1] [µM] | Ratio [2] | IC50 [3] [µM]
CC[C@H](C)[C@@H]1NC(=O)[C@H](CCCN=C(N)N)NC(=O)[C@H](CC(=O)O)NC(=O)[C@H]([C@@H](C)CC)NC(=O)[C@H](CCCN=C(N)N)NC(=O)CNC(=O)[C@@H](NC(=O)[C@H](CO)NC(=O)[C@@H](N)CO)CSSC[C@H](C(=O)N[C@@H](CC(N)=O)C(=O)N[C@@H](CO)C(=O)N[C@@H](Cc2ccccc2)C(=O)N[C@@H](CCCN=C(N)N)C(N)=O)NC(=O)CNC(=O)[C@H](CC(C)C)NC(=O)CNC(=O)[C@H](CO)NC(=O)CNC1=O | > 0.1 | > 1000 | 0.0001
CC[C@H](C)[C@H](NC(=O)[C@H](CCCN=C(N)N)NC(=O)[C@H](CC(=O)O)NC(=O)[C@@H](NC(=O)[C@H](CCCN=C(N)N)NC(=O)CNC(=O)CNC(=O)[C@H](Cc1ccccc1)NC(=O)[C@@H](N)CS)[C@@H](C)CC)C(=O)NCC(N)=O (H-CFGGRIDRIG-NH2) | > 0.1 | > 357 | 0.00028
CC[C@H](C)[C@H](NC(=O)[C@H](CCCN=C(N)N)NC(=O)[C@H](CC(=O)O)NC(=O)[C@@H](NC(=O)[C@H](CCCN=C(N)N)NC(=O)CNC(=O)CNC(=O)[C@H](Cc1ccccc1)NC(=O)[C@@H](N)CO)[C@@H](C)CC)C(=O)NCC(=O)N[C@@H](C)C(=O)N[C@@H](CCC(N)=O)C(=O)N[C@@H](CO)C(=O)NCC(=O)N[C@@H](CC(C)C)C(=O)NCC(=O)N[C@@H](CC(N)=O)C(=O)N[C@@H](CO)C(=O)N[C@@H](Cc1ccccc1)C(=O)N[C@@H](CCCN=C(N)N)C(=O)N[C@@H](Cc1ccc(O)cc1)C(=O)O (H-SFGGRIDRIGAQSGLGNSFRY-OH) | > 0.1 | > 285 | 0.00035
CC(C)C[C@H](NC(=O)[C@@H](N)CO)C(=O)N[C@@H](CCCN=C(N)N)C(=O)N[C@@H](CCCN=C(N)N)C(=O)N[C@@H](CO)C(=O)N[C@@H](CO)C(=O)N[C@@H](CS)C(=O)N[C@@H](Cc1ccccc1)C(=O)NCC(=O)NCC(=O)N[C@@H](CCCN=C(N)N)C(=O)O (H-SLRRSSCFGGR-OH) | > 0.1 | – | > 0.1
CC[C@H](C)[C@@H]1NC(=O)[C@H](CCCN=C(N)N)NC(=O)[C@H](CC(=O)O)NC(=O)[C@H]([C@@H](C)CC)NC(=O)[C@H](CCCN=C(N)N)NC(=O)CNC(=O)CNC(=O)[C@H](Cc2ccccc2)NC(=O)[C@@H](NC(=O)[C@H](CO)NC(=O)[C@H](CO)NC(=O)[C@H](CCCN=C(N)N)NC(=O)[C@H](CCCN=C(N)N)NC(=O)[C@H](CC(C)C)NC(=O)[C@@H](N)CO)CSSC[C@@H](C(N)=O)NC(=O)[C@H](CCC(N)=O)NC(=O)[C@H](C)NC(=O)CNC1=O (HELM PEPTIDE1{S.L.R.R.S.S.C.F.G.G.R.I.D.R.I.G.A.Q.C.[am]}$PEPTIDE1,PEPTIDE1,7:R3-19:R3$$$V2.0) | 0.052 | 312 | 0.00016
CC[C@H](C)[C@@H]1NC(=O)[C@H](CCCN=C(N)N)NC(=O)[C@H](CC(=O)O)NC(=O)[C@H]([C@@H](C)CC)NC(=O)[C@H](CCCN=C(N)N)NC(=O)CNC(=O)CNC(=O)[C@H](Cc2ccccc2)NC(=O)[C@@H](NC(=O)[C@H](CO)NC(=O)[C@@H](N)CO)CSSC[C@@H](C(=O)N[C@@H](CC(N)=O)C(=O)N[C@@H](CO)C(=O)O)NC(=O)CNC(=O)[C@H](CC(C)C)NC(=O)CNC(=O)[C@H](CO)NC(=O)[C@H](CCC(N)=O)NC(=O)[C@H](C)NC(=O)CNC1=O (HELM PEPTIDE1{S.S.C.F.G.G.R.I.D.R.I.G.A.Q.S.G.L.G.C.N.S}$PEPTIDE1,PEPTIDE1,3:R3-19:R3$$$V2.0) | 0.036 | 46 | 0.00078
CC[C@H](C)[C@H](NC(=O)[C@H](CCCN=C(N)N)NC(=O)[C@H](CC(=O)O)NC(=O)[C@@H](NC(=O)[C@H](CCCN=C(N)N)NC(=O)CNC(C)=O)[C@@H](C)CC)C(=O)NCC(N)=O [GRIDRIG] (Ac-GRIDRIG-NH2) | > 0.1 | > 1.5 | 0.065

Reference: ChEMBL document CHEMBL1124450, “Identification of structural requirements for analogues of atrial natriuretic peptide (ANP) to discriminate between ANP receptor subtypes” (J Med Chem, 1989)
